Test results published in US20170029366A1, “INHIBITORS OF HISTONE LYSINE SPECIFIC DEMETHYLASE (LSD1) AND HISTONE DEACETYLASES (HDACS)” (THE JOHNS HOPKINS UNIVERSITY, priority 2014, published 2017).
Where “and” joins values, the source holds several entries; their conditions need not be identical. Identical values can stand only once. Counter-ions that a name gives are not always drawn.

How the values were obtained:
[1] = biological target: T1, GST-LSD1 (Homo sapiens, UniProt O60341); settings: for k(inact) / KI (inactivation): GST-LSD1, peroxidase-coupled assay; for KI (inactivation): extrapolated to zero substrate; for k(inact)/Ki(inact): GST-LSD1 inactivation efficiency; for LSD1 inhibitory potency (in words): structure-activity comment on Table 1
[2] = biological target: T1, GST-LSD1; test: biochemical
[3] = tested on: H3K4Me2 in LNCaP cells; test: Western blot of histone H3 marks in LNCaP cells; format: cell-based; settings: 48 h, concentrations up to 40 M
Description: Histone extracts were isolated as described previously. […] Data are presented from one representative experiment.
H3K4Me was detected using a polyclonal rabbit antibody (abcam ab8895). H3K4Me2 was detected using a monoclonal rabbit antibody (abcam ab32356). H3K4Me3 was detected using a polyclonal rabbit antibody (abcam ab8580). […] H3K9Me2 was detected using a monoclonal mouse antibody (abcam ab1220). H3K36Me3 was detected using a polyclonal rabbit antibody (abcam ab9050). H3K9Ac was detected using a polyclonal rabbit antibody (abcam ab4441). Total H3 was detected using a polyclonal rabbit antibody (abcam ab1791). LSD1 was detected using a polyclonal rabbit antibody (abcam ab17721). Actin was detected using a monoclonal mouse antibody (Sigma A1978).

[4] = tested on: Immature primary cortical neurons; test: Oxidative toxicity (HCA) and neuron viability assay (MTT); format: cell-based, Sprague Dawley rats; settings: 10 M phenelzine compared with 0.5 μM bizine
Protocol: The next day cells were rinsed and then placed in medium containing 5 mM HCA. […] The next day, cell viability was assessed by the MTT assay (Promega). […] The two-way ANOVA followed by the Bonferroni posttest was used to measure statistical significance. p<0.05 was considered to be statistically significant. Each bar represents four different rat cultures.

[5] = tested on: LNCaP cells; test: Drug combination experiments with bizine ([3H] thymidine, Combination Index); format: cell-based; settings: binary combination with bizine, 48 h, 3H-thymidine incorporation

Cl.Cl.NNCCCc1ccccc1 [Compound 9c, (3-Phenylpropyl)hydrazine dihydrochloride]
k(inact) [1]: 0.32 ± 0.010 min⁻¹

CS(=O)(=O)Oc1ccccc1CCC(=O)Nc1ccc(CCNN)cc1.O=C(O)C(=O)O [Compound 12j, 2-(3-{[4-(2-Hydrazinylethyl)phenyl]amino}-3-oxopropyl)phenyl methanesulfonate oxalate]
k(inact) [1]: 0.18 ± 0.034 min⁻¹ | KI (inactivation) [1]: 204 ± 98 nM | k(inact)/Ki(inact) [1]: 0.88 ± 0.46 µM⁻¹ min⁻¹

NNCCc1ccc(NC(=O)/C=C/c2ccccc2)cc1.O=S(=O)(O)O [Compound 13, (2E)-N-[4-(2-Hydrazinylethyl)phenyl]-3-phenylprop-2-enamide sulfate]
k(inact) [1]: 0.17 ± 0.21 min⁻¹ | k(inact)/Ki(inact) [1]: 1.7 ± 0.68 µM⁻¹ min⁻¹ | LSD1 inhibitory potency (in words) [1]: reduced LSD1 inhibitory potency

CN(C)NCCc1ccccc1 [Compound 9b, 1,1-Dimethyl-2-(2-phenylethyl)hydrazine]
IC50 [2]: > 100 µM

Cl.Cl.NNCCCCc1ccccc1 [Compound 9h, (4-Phenylbutyl)hydrazine dihydrochloride]
k(inact) [1]: 0.12 ± 0.01 min⁻¹ | k(inact)/Ki(inact) [1]: 0.0055 ± 0.00087 µM⁻¹ min⁻¹

Cl.Cl.NNCCc1ccc(NC(=O)c2ccccc2)cc1 [Compound 12a, N-[4-(2-Hydrazinylethyl)phenyl]benzamide dihydrochloride]
k(inact) [1]: 0.19 ± 0.036 min⁻¹ | k(inact)/Ki(inact) [1]: 0.70 ± 0.31 µM⁻¹ min⁻¹

NNCCCc1ccc(OCc2ccccc2)cc1 [Compound 14, {3-[4-(Benxyloxy)phenyl]propyl}hydrazine]
k(inact) [1]: 0.18 ± 0.038 min⁻¹ | KI (inactivation) [1]: 900 ± 450 nM | k(inact)/Ki(inact) [1]: 0.20 ± 0.11 µM⁻¹ min⁻¹ | LSD1 inhibitory potency (in words) [1]: reduced LSD1 inhibitory potency

NNCCc1ccccc1 [phenelzine, reference compound]
H3K4Me2 changes [3]: did not induce H3K4Me2 changes | neuroprotection after HCA-treatment [4]: comparable | k(inact) [1]: 0.35 min⁻¹ and 0.35 ± 0.056 min⁻¹

NNCCc1ccc(NC(=O)CCc2ccccc2)cc1.O=S(=O)(O)O [Compound 12c, N-[4-(2-Hydrazinylethyl)phenyl]-3-phenylpropanamide sulfate]
k(inact) [1]: 0.24 ± 0.022 min⁻¹ | k(inact)/Ki(inact) [1]: 0.92 ± 0.22 µM⁻¹ min⁻¹

NNCCc1ccc(NC(=O)CCCc2ccc(Cl)cc2)cc1.O=S(=O)(O)O [Compound 12f, 4-(4-Chlorophenyl)-N-[4-(2-hydrazinylethyl)phenyl]butanamide sulfate]
k(inact) [1]: 0.17 ± 0.018 min⁻¹ | k(inact)/Ki(inact) [1]: 1.1 ± 0.35 µM⁻¹ min⁻¹

Cl.Cl.NNCCOc1ccccc1 [Compound 10a, (2-Phenoxyethyl)hydrazine dihydrochloride]
k(inact) [1]: 0.15 ± 0.010 min⁻¹ | k(inact)/Ki(inact) [1]: 0.0034 ± 0.00079 µM⁻¹ min⁻¹

COc1ccc(CCCNN)cc1.Cl.Cl [Compound 9e, [3-(4-Methoxyphenyl)propyl]hydrazine dihydrochloride]
k(inact) [1]: 0.15 ± 0.023 min⁻¹ | k(inact)/Ki(inact) [1]: 0.019 ± 0.0087 µM⁻¹ min⁻¹ | LSD1 inhibitory potency (in words) [1]: made little difference

COc1ccc(CCCC(=O)Nc2ccc(CCNN)cc2)cc1.O=S(=O)(O)O [Compound 12h, N-[4-(2-Hydrazinylethyl)phenyl]-4-(4-methoxyphenyl)butanamide sulfate]
k(inact) [1]: 0.26 ± 0.042 min⁻¹ | KI (inactivation) [1]: 207 ± 89 nM | k(inact)/Ki(inact) [1]: 1.2 ± 0.57 µM⁻¹ min⁻¹

Nc1ccccc1NC(=O)c1ccc(CNC(=O)OCc2cccnc2)cc1 [MS-275]
effect of combination with bizine on cell inhibition (in words) [5]: additive to synergistic effects

Cc1[nH]c2ccccc2c1CCNCc1ccc(/C=C/C(=O)NO)cc1 [LBH-589]
effect of combination with bizine on cell inhibition (in words) [5]: additive to synergistic effects

NNCCc1ccc(N(Cc2ccccc2)C(=O)CCCc2ccccc2)cc1.O=C(O)C(=O)O [Compound 12m, N-Benzyl-N-[4-(2-hydrazinylethyl)phenyl]-4-phenylbutanamide oxalate]
k(inact) [1]: 0.22 ± 0.025 min⁻¹ | k(inact)/Ki(inact) [1]: 0.14 ± 0.044 µM⁻¹ min⁻¹

NNCCc1ccc(NC(=O)CCCc2ccc([N+](=O)[O-])cc2)cc1.O=S(=O)(O)O [Compound 12i, N-[4-(2-Hydrazinylethyl)phenyl]-4-(4-nitrophenyl)butanamide sulfate]
k(inact) [1]: 0.21 ± 0.024 min⁻¹ | k(inact)/Ki(inact) [1]: 0.74 ± 0.22 µM⁻¹ min⁻¹

NNCCCN1CCOCC1 [Compound 11, 4-(3-Hydrazinylpropyl) morpholine, reference compound]
LSD1 inhibitory potency (in words) [1]: not compatible with LSD1 inhibition | IC50 [2]: > 100 µM

Cl.Cl.NNCCCOc1ccccc1 [Compound 10b, (3-Phenoxypropyl)hydrazine dihydrochloride]
k(inact) [1]: 0.22 ± 0.020 min⁻¹ | k(inact)/Ki(inact) [1]: 0.018 ± 0.0036 µM⁻¹ min⁻¹

NNCCc1ccc(NC(=O)CCCCc2ccccc2)cc1.O=C(O)C(=O)O [Compound 12e, N-[4-(2-Hydrazinylethyl)phenyl]-5-phenylpentanamide oxalate]
k(inact) [1]: 0.22 ± 0.038 min⁻¹ | k(inact)/Ki(inact) [1]: 0.86 ± 0.39 µM⁻¹ min⁻¹

Cl.Cl.NNCCc1ccc(NC(=O)Cc2ccccc2)cc1 [Compound 12b, N-[4-(2-Hydrazinylethyl)phenyl]-2-phenylacetamide dihydrochloride]
k(inact) [1]: 0.20 ± 0.0087 min⁻¹ | k(inact)/Ki(inact) [1]: 0.54 ± 0.054 µM⁻¹ min⁻¹

CNNCCCc1ccc(OC)cc1 [Compound 9f, 1-[3-(4-Methoxyphenyl)propyl]-2-methylhydrazine dihydrochloride]
IC50 [2]: > 100 µM

NNCCc1ccc(NC(=O)CCc2c[nH]c3ccccc23)cc1.O=S(=O)(O)O [Compound 15a, N-[4-(2-Hydrazinylethyl)phenyl]-3-(1H-indol-3-yl)propanamide sulfate]
k(inact) [1]: 0.21 ± 0.030 min⁻¹ | k(inact)/Ki(inact) [1]: 1.0 ± 0.41 µM⁻¹ min⁻¹

CN(C(=O)CCCc1ccccc1)c1ccc(CCNN)cc1.O=C(O)C(=O)O [Compound 12l, N-[4-(2-Hydrazinylethyl)phenyl]-N-methyl-4-phenylbutanamide oxalate]
k(inact) [1]: 0.24 ± 0.033 min⁻¹ | k(inact)/Ki(inact) [1]: 0.12 ± 0.045 µM⁻¹ min⁻¹

CS(=O)(=O)Oc1cccc(CCC(=O)Nc2ccc(CCNN)cc2)c1.O=C(O)C(=O)O [Compound 12k, 3-(3-{[4-(2-Hydrazinylethyl)phenyl]amino}-3-oxopropyl)phenyl methanesulfonate oxalate]
k(inact) [1]: 0.17 ± 0.020 min⁻¹ | KI (inactivation) [1]: 223 ± 64 nM | k(inact)/Ki(inact) [1]: 0.76 ± 0.24 µM⁻¹ min⁻¹
